{"source": "patent US10945980B2", "about": "“Treatment for myopia” (The University of Newcastle, priority 2016, dated 2021)", "key": {"[1]": {"system": "lens-induced myopia in guinea pigs", "test": "L-arginine eye drops in −6D lens-induced myopia", "type": "in vivo, guinea pig (Cavia porcellus)", "source_text": "Guinea pigs (pigmented variety, Cavia porcellus) were bred, housed, and raised as described in Example 1. Lights were on a 12 hr light 12 hr dark cycle. The University of Newcastle Animal Care and ethics Committee approved all procedures.\nTwo experimental protocols were employed (see Table 4). In Experiment 1, young guinea pigs wore a −6D lens on one eye from 5-12 days of age. They were randomly divided within each litter into two groups of 10 animals each, and received either a drop of L-Arginine (100 mM, 1.7%) in Saline (pH 7.4) or Saline alone (0.9%, pH 7.4) twice per day in the eye wearing the lens (Table 4). Drops were administered at the beginning of their light cycle and again approximately 6 hrs later in the middle of their day cycle. Lenses were removed during the drop administration which occurred under dim red light or in darkness. A single large drop was bathed on the cornea for 3 min in the lens-wearing eye in hand held animals. A clean lens was then reintroduced onto the eye. In Experiment 2, 14 guinea pigs were given eye drops in the same manner as in Experiment 1, but in both eyes and without any lens-wear, to determine the effect of the eye drops on normal eye growth. Animals received one drop of either 1.7% L-arginine (n=7) or atropine (Minims Atropine Sulphate 1%, Bausch & Lomb, preservative free, n=7) in one eye and saline (0.9%) in the other eye twice per day from 9-16 days of age.\nIn Experiment 1, at the end of the lens-wearing period, at 12 days of age just before the morning lights came on, both eyes were cyclopleged (1% Cyclopentolate—to paralyse the focussing muscles of the eye to a resting state) and 1.25 hours later, refractive error (RE) was measured. Animals were then anaesthetised with gaseous anaesthetic (1.5% isoflurane in oxygen) and eye length measures were taken in both eyes with high frequency ultrasound as described in Example 1. Biometry measures were also taken in the same manner before the lens wear period at 5 days of age. [No refractive measures were done at 5 days of age as cycloplegia could have interfered with the drug or lens response]. In Experiment 2, refractive error and eye length using ultrasound were measured in the same manner at 17 days of age, 24 hours after the previous drop was administered.\nIn Experiment 1, lens-induced myopia was achieved by attaching −6D concave lenses to matching Velcro arcs glued above and below the experimental eye as previously described (Howlett & McFadden, 2009). Lenses were exchanged with a clean lens after drop administration.\nAfter cycloplegia was induced, refractive error was measured in each eye using an Autorefractor (Nidek AR-20, Japan). The spherical equivalent was calculated as the average of the sphere plus half the cylinder as is normal in clinical practice. All reported refractive errors are the spherical equivalent. Next, ocular length was measured using high frequency ultrasound (20 MHz) as previously described (McFadden et al, 2004). At least 20 traces were recorded for each eye and distances were averaged for at least 10 of these recordings. Peaks from the recordings were selected for the back of the cornea, the crystalline lens, and the vitreous chamber, and the layers at the back of the eye: the retina, choroid, and sclera. Ocular length was defined as the summed measurement from the front of the cornea to the back of the sclera.\nDifferences between the two eyes were analysed by a 2-tailed T-tests. The mean of calculated differences between the two eyes is referred to as relative myopia or relative ocular length and the difference in the change in ocular length in the treated compared to the untreated eye as relative growth."}, "[2]": {"system": "guinea pig eyes not form deprived", "test": "Intravitreal L-arginine in eyes not form deprived (control groups of Example 2)", "type": "in vivo, guinea pig (Cavia porcellus)", "conditions": "2.2 mM L-arginine vs vehicle, no FD", "source_text": "Animals were assigned to one of seven treatment groups (Table 1). From seven days of age, five of these groups were form deprived in the right eye for 3 days with a diffuser (two groups wore no diffusers and served as controls for form deprived animals). Six groups of animals were intravitreally injected with either L-arginine or physiological saline once per day, just before lights came on at 10 am. One group wore diffusers, but received no injection as a control. At ten days of age, cycloplegia was induced in all animals and refractive error and ocular components were measured. Two retinas, one a saline control and another that had been injected with the highest dose of L-arginine, were analysed by histochemistry for morphological markers of L-arginine induced toxicity.\nTo establish the size of the guinea pig vitreous, and thus the molarity of the substrate within the eye, ten vitreous chambers were extracted from ten eyes. The volume of the vitreous was 125 μl. Based on this, three drug doses of L-arginine were employed: low (0.4 mM), medium (2.2 mM) and high (non-toxic: 9.3 mM) (See Table 1). […]\nCycloplegia was induced as described in Example 1, and refractive error subsequently measured as described in Example 1.\nOcular length and axial components were also determined as described in Example 1. […]"}}, "data": [{"compound": "N=C(N)NCCC[C@H](N)C(=O)O", "note": "[L-arginine]", "values": [{"measurement": "animals that did not develop myopia in the lens-wearing eye", "setting": "[1]; 1.7% (100 mM) LA eye drops twice daily, −6D lens", "result": "7/10"}, {"measurement": "relative eye growth (mean growth in ocular length) across all animals", "setting": "[1]; 1.7% LA eye drops twice daily, between 5 and 12 days of age, −6D lens, p=0.01 vs saline", "result": "42±17", "unit": "μm"}, {"measurement": "relative growth in the 70% of animals which failed to develop myopia", "setting": "[1]; 1.7% LA eye drops twice daily, between 5 and 12 days of age, p=0.44", "result": "10±12", "unit": "μm"}, {"measurement": "animals protected from developing myopia", "setting": "[1]; 1.7% LA eye drops twice daily, −6D lens", "result": 70, "unit": "%"}, {"measurement": "relative myopia in the 7 animals that did not develop myopia", "setting": "[1]; 1.7% LA eye drops twice daily, −6D lens, p=0.000 vs saline", "result": "−2.5±0.7", "unit": "D"}, {"measurement": "relative myopia, mean across all 10 animals", "setting": "[1]; 1.7% LA eye drops twice daily, −6D lens, p=0.007 vs saline", "result": "−3.6±0.8", "unit": "D"}, {"measurement": "mean myopia as percent of that in control animals", "setting": "[1]; 1.7% LA eye drops, the 70% of animals protected", "result": 37, "unit": "%"}, {"measurement": "mean refractive error in untreated eyes", "setting": "[1]; untreated fellow eyes of LA group at 12 days of age, 1.7% LA eye drops twice daily in the other eye", "result": "+5.2±0.5 D"}, {"measurement": "difference in relative refractive error between the two groups that were not form deprived", "setting": "[2]; daily 10 μl intravitreal injection for 3 days, p=0.46", "result": "−0.2", "unit": "D"}, {"measurement": "difference in ocular length between groups not form deprived", "setting": "[2]; intravitreal, p=0.44", "result": 83, "unit": "μm"}]}]}
